In patent US10239843B2 (CANCER RESEARCH TECHNOLOGY LIMITED, priority 2014, dated 2019):
Where two headings read alike, the source gives them in different places.

Tests used:
Human Full Length PARG = Human Full Length PARG (Homo sapiens (Human), UniProt Q86W56); test: PARG enzyme assay (TR-FRET); format: biochemical
PARG in HeLa cell line = test: PARG cell assay (PAR chain immunofluorescence after MMS); format: cell-based; conditions: HeLa cells
Summary of the method: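 HeLa cells were dosed with compound for 1 h, then given MMS at 50 μg/mL final for a further hour. Cells were methanol-fixed, permeabilised and stained overnight at 4° C with anti-PAR monoclonal antibody. Retained nuclear PAR chains, detected by indirect immunofluorescence, indicate PARG inhibition.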

[1] = Homo sapiens, MMS treatment, read-out: PARG Cell IC50
[2] = MMS treatment, read-out: PARG Cell IC50
[3] = read-out: PARG Biochem IC50 Geomean
[4] = Homo sapiens, MMS 50 μg/mL, read-out: PARG Cell IC50 Geomean
[5] = MMS 50 μg/mL, read-out: PARG Cell IC50 Geomean

Human Full Length PARG, sequence (Q86W56 whole entry): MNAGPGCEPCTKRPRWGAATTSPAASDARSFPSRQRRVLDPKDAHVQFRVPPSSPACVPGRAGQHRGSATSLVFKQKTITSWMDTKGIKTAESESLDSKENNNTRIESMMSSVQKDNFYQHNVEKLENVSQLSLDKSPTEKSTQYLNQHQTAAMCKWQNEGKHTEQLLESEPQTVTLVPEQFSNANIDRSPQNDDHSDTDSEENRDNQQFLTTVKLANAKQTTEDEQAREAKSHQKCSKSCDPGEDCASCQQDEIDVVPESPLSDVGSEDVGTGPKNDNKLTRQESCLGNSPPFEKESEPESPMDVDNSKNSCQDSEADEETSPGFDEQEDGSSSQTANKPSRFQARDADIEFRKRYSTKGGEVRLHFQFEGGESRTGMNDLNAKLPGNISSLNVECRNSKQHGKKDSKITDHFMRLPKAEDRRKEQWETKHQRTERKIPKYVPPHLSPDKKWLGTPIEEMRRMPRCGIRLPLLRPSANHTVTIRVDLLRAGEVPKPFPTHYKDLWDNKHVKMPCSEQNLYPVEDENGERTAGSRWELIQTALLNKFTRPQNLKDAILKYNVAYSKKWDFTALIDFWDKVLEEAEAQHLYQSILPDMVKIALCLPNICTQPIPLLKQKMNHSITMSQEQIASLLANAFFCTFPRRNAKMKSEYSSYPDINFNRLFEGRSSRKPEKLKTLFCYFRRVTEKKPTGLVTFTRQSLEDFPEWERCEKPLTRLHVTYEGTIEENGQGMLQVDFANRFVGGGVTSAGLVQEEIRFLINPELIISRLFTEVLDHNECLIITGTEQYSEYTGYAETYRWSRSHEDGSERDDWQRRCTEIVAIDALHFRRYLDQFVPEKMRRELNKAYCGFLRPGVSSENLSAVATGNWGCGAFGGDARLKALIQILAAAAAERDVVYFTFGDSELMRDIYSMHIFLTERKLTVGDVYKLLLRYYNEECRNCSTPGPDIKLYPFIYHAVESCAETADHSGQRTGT

Row | IC50 (Human Full Length PARG; read-out: PARG Biochem IC50) | IC50 (PARG in HeLa cell line; [1]) | IC50 (Human Full Length PARG; [3]) | Structure (SMILES) | other results
1 | 27 nM | 320 nM |  | Cc1cc(Cn2c(=O)n(Cc3cnc(C)s3)c(=O)c3cc(S(=O)(=O)NC4(C#N)CC4)ccc32)on1 [Example 400, N-(1-Cyanocyclopropyl)-1-[(3-methylisoxazol-5-yl)methyl]-3-[(2-methylthiazol-5-yl)methyl]-2,4-dioxo-quinazoline-6-sulfonamide] | 
2 | 175 nM | 157 nM |  | Cc1cc(Cn2c(=O)c3cc(S(=O)(=O)NC4(CF)CC4)ccc3n(Cc3nnc(C)s3)c2=O)on1 [Example 552, N-[1-(Fluoromethyl)cyclopropyl]-3-[(3-methylisoxazol-5-yl)methyl]-1-[(5-methyl-1,3,4-thiadiazol-2-yl)methyl]-2,4-dioxo-quinazoline-6-sulfonamide] | 
3 | 109 nM | 121 nM |  | Cc1ncc(Cn2c(=O)c3cc(S(=O)(=O)NC4(C)CC4)ccc3n(CC3CC(C)(C)C3)c2=O)s1 [Example 478, 1-[(3,3-dimethylcyclobutyl)methyl]-N-(1-methylcyclopropyl)-3-[(2-methylthiazol-5-yl)methyl]-2,4-dioxo-quinazoline-6-sulfonamide] | 
4 | 710 nM | 13500 nM |  | Cc1nnc(Cn2c(=O)[nH]c3ccc(S(=O)(=O)NC4(CF)CC4)cc3c2=O)s1 [Example 601, N-[1-(Fluoromethyl)cyclopropyl]-3-[(5-methyl-1,3,4-thiadiazol-2-yl)methyl]-2,4-dioxo-1H-quinazoline-6-sulfonamide] | 
5 | 8 nM | 66 nM |  | Cn1cc(Cn2c(=O)c3cc(S(=O)(=O)NC4(CF)CC4)ccc3n(Cc3cncs3)c2=O)cn1 [Example 563, N-[1-(Fluoromethyl)cyclopropyl]-3-[(1-methylpyrazol-4-yl)methyl]-2,4-dioxo-1-(thiazol-5-ylmethyl)quinazoline-6-sulfonamide] | 
6 | 3440 nM |  |  | Cn1cc(Cc2cc3cc(S(=O)(=O)NC4(C)CC4)ccc3n(C)c2=O)cn1 [Example 491, 1-Methyl-N-(1-methylcyclopropyl)-3-[(1-methylpyrazol-4-yl)methyl]-2-oxo-quinoline-6-sulfonamide] | IC50 (PARG in HeLa cell line; [2]): 1790 nM
7 | 120 nM |  |  | C#CCn1c(=O)n(Cc2cc(C)no2)c(=O)c2cc(S(=O)(=O)NC3(CF)CC3)ccc21 [Example 532, N-[1-(Fluoromethyl)cyclopropyl]-3-[(3-methylisoxazol-5-yl)methyl]-2,4-dioxo-1-prop-2-ynyl-quinazoline-6-sulfonamide] | IC50 (PARG in HeLa cell line; [2]): 87 nM
8 |  |  | 369 nM | Cc1ncc(Cn2c(=O)[nH]c3ccc(S(=O)(=O)NC4(C#N)CC4)cc3c2=O)s1 [Example 386, N-(1-Cyanocyclopropyl)-3-[(2-methylthiazol-5-yl)methyl]-2,4-dioxo-1H-quinazoline-6-sulfonamide] | IC50 (PARG in HeLa cell line; [4]): 8380 nM
9 |  |  | 317 nM | Cn1cc(Cn2c(=O)c3cc(S(=O)(=O)NC4(C)CC4)ccc3n(CCN3CCCC3)c2=O)cn1 [Example 272] | IC50 (PARG in HeLa cell line; [4]): 467 nM
10 | 7100 nM |  |  | Cc1cc(Cn2c(=O)n(Cc3cnn(C)c3)c(=O)c3cc(S(=O)(=O)NC4(C(F)(F)F)CC4)ccc32)n(C)n1 [Example 485, 1-[(2,5-Dimethylpyrazol-3-yl)methyl]-3-[(1-methylpyrazol-4-yl)methyl]-2,4-dioxo-N-[1-(trifluoromethyl)cyclopropyl]quinazoline-6-sulfonamide] | IC50 (PARG in HeLa cell line; [2]): 4070 nM
11 | 550 nM | 241 nM |  | COC1(Cn2c(=O)n(Cc3cc(C)no3)c(=O)c3cc(S(=O)(=O)NC4(C)CC4)ccc32)CCCC1 [Example 471, 1-[(1-Methoxycyclopentyl)methyl]-N-(1-methylcyclopropyl)-3-[(3-methylisoxazol-5-yl)methyl]-2,4-dioxo-quinazoline-6-sulfonamide] | 
12 |  |  | 391 nM | Cc1cc(Cn2c(=O)c3cc(S(=O)(=O)NC4(C)CC4)ccc3n(Cc3nc(C)no3)c2=O)on1 [Example 252] | IC50 (PARG in HeLa cell line; [4]): 297 nM
13 | 469 nM | 305 nM |  | COC(C)(C)Cn1c(=O)n(Cc2cc(C)no2)c(=O)c2cc(S(=O)(=O)NC3(C)CC3)ccc21 [Example 413, 1-(2-Methoxy-2-methyl-propyl)-N-(1-methylcyclopropyl)-3-[(3-methylisoxazol-5-yl)methyl]-2,4-dioxo-quinazoline-6-sulfonamide] | 
14 | 451 nM |  |  | Cc1cc(Cn2c(=O)c3cc(S(=O)(=O)NC4(CF)CC4)ccc3n(Cc3ncn(C)n3)c2=O)on1 [Example 553, N-[1-(Fluoromethyl)cyclopropyl]-3-[(3-methylisoxazol-5-yl)methyl]-1-[(1-methyl-1,2,4-triazol-3-yl)methyl]-2,4-dioxo-quinazoline-6-sulfonamide] | IC50 (PARG in HeLa cell line; [2]): 1510 nM
15 |  |  | 431 nM | Cc1cc(Cn2c(=O)c3cc(S(=O)(=O)NC4(C)CC4)ccc3n(CC(F)(F)F)c2=O)on1 [Example 325] | IC50 (PARG in HeLa cell line; [4]): 320 nM
16 |  |  | 258 nM | Cc1cc(Cn2c(=O)c3cc(S(=O)(=O)NC4(C)CC4)ccc3n(CC3CCN(C)CC3)c2=O)on1 [Example 371] | IC50 (PARG in HeLa cell line; [4]): 1110 nM
17 |  |  | 324 nM | Cn1c(=O)c2cc(S(=O)(=O)NC3(C)CC3)ccc2n(Cc2ccccc2C#N)c1=O [Example 68] | IC50 (PARG in HeLa cell line; [4]): 306 nM

Row | IC50 (Human Full Length PARG; read-out: PARG Biochem IC50) | IC50 (PARG in HeLa cell line; [1]) | IC50 (Human Full Length PARG; [3]) | Structure (SMILES) | other results
18 |  |  | 411 nM | Cn1c(=O)n(Cc2cnc(NC(=O)OC(C)(C)C)s2)c(=O)c2cc(S(=O)(=O)NC3(C)CC3)ccc21 [Example 214] | IC50 (PARG in HeLa cell line; [5]): 3470 nM
19 | 472 nM |  |  | Cc1nnc(Cn2c(=O)c3cc(S(=O)(=O)NC4(C)CC4)ccc3n(C)c2=O)s1 [Example 500, 1-Methyl-N-(1-methylcyclopropyl)-3-[(5-methyl-1,3,4-thiadiazol-2-yl)methyl]-2,4-dioxo-quinazoline-6-sulfonamide] | IC50 (PARG in HeLa cell line; [2]): 350 nM
20 |  |  | 293 nM | Cn1nc(C(C)(C)C)cc1Cn1c(=O)n(C)c(=O)c2cc(S(=O)(=O)NC3(C)CC3)ccc21 [Example 149] | IC50 (PARG in HeLa cell line; [4]): 518 nM
21 |  |  | 234 nM | Cc1cc(Cn2c(=O)c3cc(S(=O)(=O)NC4(C)CC4)ccc3n(CC3CCCO3)c2=O)on1 (centres unmarked) [Example 267] | IC50 (PARG in HeLa cell line; [5]): 248 nM
22 | 64 nM | 274 nM |  | Cc1cc(Cn2c(=O)n(Cc3nnc(C)s3)c(=O)c3cc(S(=O)(=O)NC4(C)CC4)ccc32)n(C)n1 [Example 615, 1-[(2,5-Dimethylpyrazol-3-yl)methyl]-N-(1-methylcyclopropyl)-3-[(5-methyl-1,3,4-thiadiazol-2-yl)methyl]-2,4-dioxo-quinazoline-6-sulfonamide] | 
23 | 1770 nM | 1520 nM |  | CN(C)CC#Cc1cc(S(=O)(=O)NC2(C)CC2)cc2c(=O)n(Cc3cnn(C)c3)c(=O)[nH]c12 [Example 429, 8-[3-(Dimethylamino)prop-1-ynyl]-N-(1-methylcyclopropyl)-3-[(1-methylpyrazol-4-yl)methyl]-2,4-dioxo-1H-quinazoline-6-sulfonamide] | 
24 | 3720 nM |  |  | C#CC1(NS(=O)(=O)c2ccc3[nH]c(=O)n(Cc4cnn(C)c4)c(=O)c3c2)CC1 [Example 431, N-(1-Ethynylcyclopropyl)-3-[(1-methylpyrazol-4-yl)methyl]-2,4-dioxo-1H-quinazoline-6-sulfonamide] | IC50 (PARG in HeLa cell line; [2]): 3030 nM
25 | 355 nM | 228 nM |  | Cc1cc(Cn2c(=O)c3cc(S(=O)(=O)NC4(CF)CC4)ccc3n(CC(F)(F)F)c2=O)on1 [Example 622, N-[1-(Fluoromethyl)cyclopropyl]-3-[(3-methylisoxazol-5-yl)methyl]-2,4-dioxo-1-(2,2,2-trifluoroethyl)quinazoline-6-sulfonamide] | 
26 | 687 nM |  |  | Cn1cc(Cn2c(=O)c3cc(S(=O)(=O)NC4(CF)CC4)ccc3n(CCc3ccccn3)c2=O)cn1 [Example 566, N-[1-(Fluoromethyl)cyclopropyl]-3-[(1-methylpyrazol-4-yl)methyl]-2,4-dioxo-1-[2-(2-pyridyl)ethyl]quinazoline-6-sulfonamide] | IC50 (PARG in HeLa cell line; [2]): 562 nM
27 | 177 nM | 283 nM |  | CCn1c(=O)n(Cc2cnc(C)s2)c(=O)c2cc(S(=O)(=O)NC3(C#N)CC3)ccc21 [Example 455, N-(1-Cyanocyclopropyl)-1-ethyl-3-[(2-methylthiazol-5-yl)methyl]-2,4-dioxo-quinazoline-6-sulfonamide] | 
28 | 106 nM | 118 nM |  | Cn1cc(Cn2c(=O)c3cc(S(=O)(=O)NC4(CF)CC4)ccc3n(Cc3ccc(F)cc3)c2=O)cn1 [Example 419, N-[1-(Fluoromethyl)cyclopropyl]-1-[(4-fluorophenyl)methyl]-3-[(1-methylpyrazol-4-yl)methyl]-2,4-dioxo-quinazoline-6-sulfonamide] | 
29 | 140 nM |  |  | CC(C)Cn1c(=O)n(Cc2cnn(C)c2)c(=O)c2cc(S(=O)(=O)NC3(CF)CC3)ccc21 [Example 549, N-[1-(Fluoromethyl)cyclopropyl]-1-isobutyl-3-[(1-methylpyrazol-4-yl)methyl]-2,4-dioxo-quinazoline-6-sulfonamide] | IC50 (PARG in HeLa cell line; [2]): 91 nM
30 |  |  | 447 nM | CCn1cc(Cn2c(=O)c3cc(S(=O)(=O)NC4(C)CC4)ccc3n(C)c2=O)cn1 [Example 181] | IC50 (PARG in HeLa cell line; [4]): 680 nM
31 | 5400 nM | 1260 nM |  | C#CC1(NS(=O)(=O)c2ccc3c(c2)c(=O)n(Cc2cnn(C)c2)c(=O)n3C)CC1 [Example 427, N-(1-Ethynylcyclopropyl)-1-methyl-3-[(1-methylpyrazol-4-yl)methyl]-2,4-dioxo-quinazoline-6-sulfonamide] | 
32 |  |  | 312 nM | Cc1cc(Cn2c(=O)c3cc(S(=O)(=O)NC4(C)CC4)ccc3n(Cc3noc(C)n3)c2=O)on1 [Example 243] | IC50 (PARG in HeLa cell line; [4]): 221 nM
33 |  |  | 356 nM | CCOC(=O)Cn1c(=O)n(Cc2cc(C)no2)c(=O)c2cc(S(=O)(=O)NC3(C)CC3)ccc21 [Example 332] | IC50 (PARG in HeLa cell line; [4]): 462 nM
34 |  |  | 367 nM | Cc1cc(Cn2nc(NC3CCOCC3)c3ccc(S(=O)(=O)NC4(C)CC4)cc3c2=O)on1 [Example 306] | IC50 (PARG in HeLa cell line; [5]): 471 nM
